The assay has as its system Sphincter of Oddi. Particulars: co-administered with Fe-PSMPs via oral gavage; pancreatic tumor-bearing mice.

SMILES strings stand for the structures.

Method: Female C57BL/6 mice 6-8 weeks of age (Jackson Laboratories) were orthotopically inoculated in pancreas with KPC-Luc cells (1.5×10^4). […] During the biodistribution studies, ^68Ga-PSMPs, Fe-PSMPs or Nano-Calcium were administered in mice via oral gavage. Mice were euthanized 2 hours after oral gavage. The pancreas and other major organs were collected and wet-weighted and the radioactivity in the organs were measured by a gamma counter (Wizard 2 1-Detector, PerkinElmer).

For `O=[N+]([O-])OCC(CO[N+](=O)[O-])O[N+](=O)[O-]` [nitroglycerin], the “increase in the accumulation of Fe-PSMPs in the pancreas” value was 10 fold.
